Laboratory results reported in patent US5204341A, “1-arylsulphonyl-2-pyrrolidone derivatives, their preparation process and the new intermediates obtained, their use as medicaments and the pharmaceutical compositions containing them” (priority 1990, dated 1993).
Like-named read-outs stand apart in the source and are kept apart here.

What was measured:
[1] = test system: acetylcholine-induced contractions of isolated ileum; test: Antagonism of acetylcholine-induced contractions of isolated guinea-pig ileum; format: cell-based; details: read-out: Antagonistic to ACh, IC50
Description: (§1) The interaction of the compounds with different receptors was evaluated on the isolated ileum of a guinea-pig according to the following method.
(§2) 2.5-3 cm segments of the guinea-pigs, ileum were washed and immediately suspended in a bath containing 10 ml of a Tyrode solution at 37° C. and aerated with a mixture of oxygen (95%) and carbon dioxide (5%). After a stabilization period of at least 30 minutes, the contractions are recorded, maintaining the preparation under constant pressure of 1 g, using a sensor connected to a polygraph. […] The following dose was only added to the bath after the preparation returned to its base line. Arecoline was used as reference product. The antagonistic action was evaluated on contractions induced by acetylcholine (1×10^-6 M), histamine (1×10^-5 M) and barium chloride (2×10^-5 M). […] The contact time before adding the agonist was one minute.
(§3) For each compound the dose-response curves are obtained with 4 to 6 different concentrations and 3 to 5 independent tests. The agonistic activity is expressed by pD2 (negative logarithm of the dose which produces 50% of the maximum effect). The antagonistic activity is expressed by IC50 (concentration inhibiting 50% of the maximum response).

isolated ileum = test: Agonistic action on isolated guinea-pig ileum; format: cell-based; details: negative logarithm of the dose producing 50% of the maximum effect; for EC50: Cavia porcellus, read-out: Agonistic action pD2 (converted)
Description: as §1, §2, §3

Muscarinic receptor 1 = biological target: T1, Muscarinic receptor 1 (Rattus norvegicus, UniProt P08482); test: Affinity for the muscarinic M1 receptor ([^3 H]pirenzepine binding, rat cortex); details: 0.25 nM ^3 H pirenzepine, 60 min, 25° C., pH 7.4
T1 construct: cortex removed from the brains of male rats weighing 150 to 200 g (Iffa Credo); from tissue; host or cells: rat cerebral cortex homogenate
T1 sequence (P08482 1-460): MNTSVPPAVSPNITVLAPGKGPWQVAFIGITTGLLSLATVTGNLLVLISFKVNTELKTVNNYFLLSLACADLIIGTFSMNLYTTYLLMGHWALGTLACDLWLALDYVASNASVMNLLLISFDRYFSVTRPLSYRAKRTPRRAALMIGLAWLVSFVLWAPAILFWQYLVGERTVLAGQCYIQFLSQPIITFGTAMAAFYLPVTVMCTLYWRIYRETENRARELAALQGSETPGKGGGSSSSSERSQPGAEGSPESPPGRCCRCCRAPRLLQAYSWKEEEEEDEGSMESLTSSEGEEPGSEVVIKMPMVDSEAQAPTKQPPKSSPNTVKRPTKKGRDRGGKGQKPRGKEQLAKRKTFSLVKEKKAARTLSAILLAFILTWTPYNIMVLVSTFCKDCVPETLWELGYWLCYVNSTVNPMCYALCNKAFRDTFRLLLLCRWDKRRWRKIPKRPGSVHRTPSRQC
Description: Its preparation is carried out from cortex removed from the brains of male rats weighing 150 to 200 g (Iffa Credo) ground up in a Polytron in a 10 mM Na/K pH 7.4 buffer. After incubation (0.5 ml aliquots of homogenate) for 60 minutes at 25° C. in the presence of 0.25 nM of ^3 H pirenzepine either on its own, or with the product to be tested, or with an excess of pirenzepine at 10^-5 M (in order to determine the non-specific fixed radioactivity), the incubates are cooled down and filtered.
The filtration is carried out on Whatman GF/C filters prewashed in a 0.05% polyethylene imine solution. The filters are rinsed with 3×5 ml of 10 mM Na/K pH 7.4 phosphate buffer, then measurements are carried out by liquid scintillation.
(§4) The results are expressed in IC50 (concentration necessary to inhibit 50% of the fixed specific radio-activity).

Muscarinic receptor 2 = test: Affinity for the muscarinic M2 receptor ([^3 H]quinuclidinyl benzylate binding, rat brain); details: 0.3 nM ^3 H quinuclidinyl benzylate, 60 min, 25° C., pH 7.5
Description: The preparation is carried out from the brains of male rats weighing 150 to 200 g (Iffa Credo).
The brains are ground up (Teflon-glass) in a 0.32 M sucrose solution. The homogenate is centrifuged for 10 minutes at 1000 g (0-4° C.).
The supernatant obtained is collected and centrifuged again at 30000 g for 15 minutes (0-4° C.).
The deposit is put in suspensions in a 50 mM Tris pH 7.5 buffer and the new homogenate is centrifuged again at 30000 g for 15 minutes (0-4° C.).
After elimination of the supernatants, the deposits can be used immediately or kept for up to one month at -30° C.
For one experiment the deposits are firstly defrosted, if necessary, at ambient temperature and put in suspension using a Dounce grinder in a 50 mM Tris pH 7.5 buffer. 2 ml aliquots are incubated for 60 minutes at 25° C. in the presence of 0.3 nM of
^3 H quinuclidinyl benzylate either on its own, or with the product to be tested, or with benzatropine at 10^-5 M in order to determine the non-specific fixed radioactivity.
At the end of the incubation, the tubes of incubate are cooled down to 4° C. and the incubate is filtered rapidly on Whatman GF/C filters. The filters are rinsed with 3×5 ml of 50 mM Tris pH 7.5 buffer then measurements are carried out by liquid scintillation (Henry I Yamamura, Solomon H. Synder, Proc. Nat. Acad Sc. (1974) 71, No. 5, 1725-1729).
as §4

[2] = test system: barium chloride-induced contractions of isolated ileum; test: Antagonism of barium chloride-induced contractions of isolated guinea-pig ileum; format: cell-based; details: read-out: Antagonistic to BaCl2, IC50
Description: as §1, §2, §3

[3] = test system: histamine-induced contractions of isolated ileum; test: Antagonism of histamine-induced contractions of isolated guinea-pig ileum; format: cell-based; details: histamine 1×10^-5 M, contact time one minute, 37° C., read-out: Antagonistic to Histam., IC50
Description: as §1, §2, §3

[4] = test system: cholinomimetic effects induced by carbachol; test: In vivo anti-cholinergic action: inhibition of cholinomimetic effects induced by carbachol in mice; parameters: species or system CD1 male mice; details: for ED50 / ED (1 degree C): Mus musculus, ip, 0.5 h; for ED (1 degree C): rectal temperature, read-out: Dose changing body temperature (hypothermic effect of carbachol) by 1° C.
Description: The anti-cholinergic activity of the compounds was determined by evaluating the capacity to inhibit the cholino-mimetic effects induced by carbachol. Atropine sulphate was used as reference product.
CD1 male mice weighing 25 to 30 g are used. They are divided into groups of 6 animals and treated by intraperi-toneal route at scalar doses of the products or 0.25% Methocel for the controls. 12 animals are used for each dose. 30 minutes after the administration of the compounds, 1 mg/kg of carbachol, dissolved in physiological serum, was injected into the mice by sub-cutaneous route.
Each animal was examined 30 minutes after the injection of carbachol to evaluate the presence of diarrhoea, salivation and weeping; the body temperature was also measured using a thermocouple inserted 1.5 cm inside the rectum.
For each compound, we have determined the dose which can inhibit, in 50% of the animals, the appearance of cholinomimetic symptoms induced by carbachol and […] the hypothermic effect induced by the cholinergic agent by 1° C.

[5] = Cavia porcellus, acetylcholine 1×10^-6 M, contact time one minute, 37° C.
[6] = Cavia porcellus, barium chloride 2×10^-5 M, contact time one minute, 37° C.
[7] = i.p., 30 min before carbachol 1 mg/kg s.c., read-out: Dose inhibiting diarrhoea in 50% of the animals
[8] = i.p., 30 min before carbachol 1 mg/kg s.c., read-out: Dose inhibiting salivation in 50% of the animals
[9] = i.p., 30 min before carbachol 1 mg/kg s.c., read-out: Dose inhibiting weeping in 50% of the animals
[10] = i.p., 30 min before carbachol 1 mg/kg s.c.

Molecule	IC50 (Muscarinic receptor 1) [nM]	IC50 (Muscarinic receptor 2) [µM]	EC50 (isolated ileum) [µM]	IC50 [1, 5] [nM]	IC50 [2, 6] [µM]	IC50 ([3]; Cavia porcellus) [µM]	also measured
1-[[4-(dimethylamino)-phenyl]-sulphonyl]-4-(2,2-dimethyl-1-oxo-propoxy)-2-pyrrolidinone [Example 2]	720	> 5					IC50 ([1]; acetylcholine 1×10^-6 M, contact time one minute, 37° C.): 5500 nM; Agonistic action pD2 (isolated ileum): < 4; IC50 ([2]; barium chloride 2×10^-5 M, contact time one minute, 37° C.): > 10 µM; IC50 [3]: > 10 µM
COC(=O)C1=CCCN(C)C1 [Arecoline, reference compound]			0.209				
CN1[C@@H]2CC[C@H]1C[C@@H](OC(=O)C(CO)c1ccccc1)C2 (stereo partly shown) [Atropine, reference compound]							IC50 ([1]; Cavia porcellus): 9.5 nM; ED50 ([4]; read-out: Dose inhibiting diarrhoea in 50% of the animals): 0.04 mg/kg; ED50 ([4]; read-out: Dose inhibiting salivation in 50% of the animals): 0.06 mg/kg; ED50 ([4]; read-out: Dose inhibiting weeping in 50% of the animals): 0.05 mg/kg
C[N+](C)(C)CCOC(N)=O [Carbochol, carbachol, reference compound]							decrease of the rectal temperature ([4]; 1 mg/kg s.c., control mice): about 2.5 °C; induction of diarrhoea, salivation and weeping ([4]; 1 mg/kg s.c., control mice): induced diarrhoea, salivation and weeping in all the control mice
CCN(CC)c1ccc(S(=O)(=O)N2CC(O)CC2=O)cc1 (stereo not shown) [Example 1, 1-[[4-(diethylamino)-phenyl]sulphonyl]-4-hydroxy-2-pyrrolidinone]	370	> 5	> 100	860	> 10	> 10	
CCN(CC)c1ccc(S(=O)(=O)N2CC(O)CC2=S)cc1 (stereo not shown) [Example 3, 1-[[4-(diethylamino)-phenyl]-sulphonyl]-4-hydroxy-2-pyrrolidine thione]	370	> 5	> 100	3000	> 10	> 10	
O=C1CC(O)CN1S(=O)(=O)c1ccc(N2CCCCC2)cc1 (stereo not shown) [Example 4, 4-hydroxy-1-[[4-(1-piperidinyl)-phenyl]-sulphonyl]-2-pyrrolidinone]	560	10	> 100	1200	2.5	> 10	
O=S(=O)(c1ccc(N2CCCCC2)cc1)N1CC(O)CC1=S (stereo not shown) [Example 5]	170	> 5	> 100	1400	> 10	> 10	ED50 [4, 7]: 6 mg/kg; ED50 [4, 8]: 50 mg/kg; ED50 [4, 9]: > 50 mg/kg; ED (1 degree C) [4, 10]: 25 mg/kg; selectivity of in vivo anticholinergic action (in words) ([4]; contrary to atropine): selective anticholingeric action at the level of the intestinal musculature
O=C1CC(O)CN1S(=O)(=O)c1ccc(N2CCCCCC2)cc1 (stereo not shown) [Example 6, 1-[[4-(hexahydro-1H-azepin-1-yl)-phenyl]-sulphonyl]-4-hydroxy-pyrrolidinon]	62		> 100	110	2.5	> 10	ED50 [4, 7]: 12 mg/kg; ED50 [4, 8]: > 50 mg/kg; ED50 [4, 9]: > 50 mg/kg; ED (1 degree C) [4, 10]: 50 mg/kg
O=S(=O)(c1ccc(N2CCCCCC2)cc1)N1CC(O)CC1=S (stereo not shown) [Example 7, 1-[[4-(hexahydro-1H-azepin-1-yl)-phenyl]-sulphonyl]-4-hydroxy pyrrolidine thione]	83		> 100	510	3.6	> 10	ED50 [4, 7]: 5 mg/kg; ED50 [4, 8]: 50 mg/kg; ED50 [4, 9]: > 50 mg/kg; ED (1 degree C) [4, 10]: 20 mg/kg
COc1ccc(Cc2nccc3cc(OC)c(OC)cc23)cc1OC [Papaverine, papaverine, reference compound]							IC50 ([2]; Cavia porcellus): 45 µM
